Assay results taken from ChEMBL document CHEMBL1201862, “PubChem BioAssay data set” (2004).
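Cells were grown in 96-well plates and exposed to each compound for 48 hours at five concentrations; endpoints were interpolated linearly between bracketing concentrations, or set to the highest concentration if not reached. GI50: concentration for 50% inhibition of growth.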 Active and inactive are the calls of the source. Cut-off read from the data, not from the text of the source: active = GI50 up to about 1.1 µM and inactive = higher.

Columns and labels:
Assay in all cases: NCI anticancer screen, dose series, 48 h
786-0 = tested on: 786-0
A498 = tested on: A498
A549 = tested on: A549
ACHN = tested on: ACHN
BT-549 = tested on: BT-549
CAKI-1 = tested on: CAKI-1
CCRF-CEM = tested on: CCRF-CEM
COLO 205 = tested on: COLO 205
DU-145 = tested on: DU-145
EKVX = tested on: EKVX
HCC 2998 = tested on: HCC 2998
HCT-116 = tested on: HCT-116
HCT-15 = tested on: HCT-15
HL-60 = tested on: HL-60
HOP-62 = tested on: HOP-62
HOP-92 = tested on: HOP-92
HT-29 = tested on: HT-29
Hs-578T = tested on: Hs-578T
IGROV-1 = tested on: IGROV-1
K562 = tested on: K562
KM12 = tested on: KM12
LOX IMVI = tested on: LOX IMVI
M14 = tested on: M14
MCF7 = tested on: MCF7
MDA-MB-231 = tested on: MDA-MB-231
MDA-MB-435 = tested on: MDA-MB-435
MDA-N = tested on: MDA-N
MOLT-4 = tested on: MOLT-4
Malme-3M = tested on: Malme-3M
NCI-H226 = tested on: NCI-H226
NCI-H23 = tested on: NCI-H23
NCI-H460 = tested on: NCI-H460
NCI-H522 = tested on: NCI-H522
NCI/ADR-RES = tested on: NCI/ADR-RES
OVCAR-3 = tested on: OVCAR-3
OVCAR-4 = tested on: OVCAR-4
OVCAR-5 = tested on: OVCAR-5
OVCAR-8 = tested on: OVCAR-8
PC-3 = tested on: PC-3
RPMI-8226 = tested on: RPMI-8226
RXF 393 = tested on: RXF 393
SF-268 = tested on: SF-268
SF-295 = tested on: SF-295
SF-539 = tested on: SF-539
SK-MEL-28 = tested on: SK-MEL-28
SK-MEL-2 = tested on: SK-MEL-2
SK-MEL-5 = tested on: SK-MEL-5
SK-OV-3 = tested on: SK-OV-3
SN12C = tested on: SN12C
SNB-19 = tested on: SNB-19
SNB-75 = tested on: SNB-75
SR = tested on: SR
SW-620 = tested on: SW-620
T47D = tested on: T47D
TK-10 = tested on: TK-10
U-251 = tested on: U-251
UACC-257 = tested on: UACC-257
UACC-62 = tested on: UACC-62
UO-31 = tested on: UO-31

## O=[N+]([O-])c1ccc(-c2cc(O)c3nc4ccccc4n3c2)cc1
786-0
  GI50: > 90.6 µM (inactive)
A498
  GI50: > 100 µM (inactive)
A549
  GI50: > 100 µM (inactive)
ACHN
  GI50: 65.2 µM (inactive)
BT-549
  GI50: > 100 µM (inactive)
CAKI-1
  GI50: > 100 µM (inactive)
CCRF-CEM
  GI50: > 100 µM (inactive)
COLO 205
  GI50: > 100 µM (inactive)
DU-145
  GI50: > 100 µM (inactive)
EKVX
  GI50: > 100 µM (inactive)
HCC 2998
  GI50: > 100 µM (inactive)
HCT-116
  GI50: > 100 µM (inactive)
HCT-15
  GI50: > 100 µM
HL-60
  GI50: > 100 µM (inactive)
HOP-62
  GI50: 28.6 µM (inactive)
HOP-92
  GI50: > 65.9 µM (inactive)
HT-29
  GI50: > 100 µM (inactive)
Hs-578T
  GI50: > 100 µM (inactive)
IGROV-1
  GI50: > 100 µM (inactive)
K562
  GI50: > 100 µM (inactive)
KM12
  GI50: > 100 µM (inactive)
LOX IMVI
  GI50: > 100 µM (inactive)
M14
  GI50: > 100 µM (inactive)
MCF7
  GI50: > 84.7 µM (inactive)
MDA-MB-231
  GI50: > 100 µM (inactive)
MDA-MB-435
  GI50: > 31.6 µM (inactive)
MDA-N
  GI50: > 100 µM (inactive)
MOLT-4
  GI50: > 100 µM (inactive)
Malme-3M
  GI50: > 100 µM (inactive)
NCI-H226
  GI50: > 100 µM (inactive)
NCI-H23
  GI50: > 100 µM (inactive)
NCI-H460
  GI50: > 100 µM (inactive)
NCI-H522
  GI50: > 93.1 µM (inactive)
NCI/ADR-RES
  GI50: > 100 µM (inactive)
OVCAR-3
  GI50: > 100 µM (inactive)
OVCAR-4
  GI50: > 100 µM (inactive)
OVCAR-5
  GI50: > 100 µM (inactive)
OVCAR-8
  GI50: 60.1 µM (inactive)
PC-3
  GI50: > 100 µM (inactive)
RPMI-8226
  GI50: > 100 µM (inactive)
RXF 393
  GI50: > 100 µM (inactive)
SF-268
  GI50: > 56.5 µM (inactive)
SF-295
  GI50: > 100 µM (inactive)
SF-539
  GI50: > 100 µM (inactive)
SK-MEL-28
  GI50: > 100 µM (inactive)
SK-MEL-2
  GI50: > 100 µM (inactive)
SK-MEL-5
  GI50: > 100 µM (inactive)
SK-OV-3
  GI50: 22.8 µM (inactive)
SN12C
  GI50: > 100 µM (inactive)
SNB-19
  GI50: > 53.7 µM (inactive)
SNB-75
  GI50: > 40.9 µM (inactive)
SR
  GI50: > 100 µM (inactive)
SW-620
  GI50: > 100 µM (inactive)
T47D
  GI50: 74 µM (inactive)
TK-10
  GI50: > 100 µM (inactive)
U-251
  GI50: 28.1 µM (inactive)
UACC-257
  GI50: > 100 µM (inactive)
UACC-62
  GI50: > 31.6 µM (inactive)
UO-31
  GI50: > 91.4 µM (inactive)

## c1ccc2c(c1)CCc1[nH]c3c(c1-2)-c1ccccc1CC3
786-0
  GI50: 83 µM (inactive)
A498
  GI50: > 100 µM (inactive)
A549
  GI50: 77.1 µM (inactive)
ACHN
  GI50: > 100 µM (inactive)
BT-549
  GI50: > 100 µM (inactive)
CAKI-1
  GI50: 91.6 µM (inactive)
CCRF-CEM
  GI50: 39.4 µM (inactive)
COLO 205
  GI50: > 100 µM (inactive)
DU-145
  GI50: > 100 µM (inactive)
EKVX
  GI50: > 100 µM (inactive)
HCC 2998
  GI50: 36 µM (inactive)
HCT-116
  GI50: 96.8 µM (inactive)
HCT-15
  GI50: 48.1 µM
HL-60
  GI50: 27.9 µM (inactive)
HOP-62
  GI50: 15.1 µM (inactive)
HOP-92
  GI50: > 100 µM (inactive)
HT-29
  GI50: 32.3 µM (inactive)
Hs-578T
  GI50: 36.9 µM (inactive)
IGROV-1
  GI50: > 100 µM (inactive)
K562
  GI50: 36.7 µM (inactive)
KM12
  GI50: 48.2 µM (inactive)
LOX IMVI
  GI50: 42.6 µM (inactive)
M14
  GI50: 35 µM (inactive)
MCF7
  GI50: 39.9 µM (inactive)
MDA-MB-231
  GI50: 33.2 µM (inactive)
MDA-MB-435
  GI50: 74.6 µM (inactive)
MDA-N
  GI50: 94 µM (inactive)
MOLT-4
  GI50: 35.6 µM (inactive)
Malme-3M
  GI50: > 100 µM (inactive)
NCI-H226
  GI50: 61.8 µM (inactive)
NCI-H23
  GI50: > 100 µM (inactive)
NCI-H460
  GI50: 39.9 µM (inactive)
NCI-H522
  GI50: 96.4 µM (inactive)
NCI/ADR-RES
  GI50: 98.6 µM (inactive)
OVCAR-3
  GI50: 91.4 µM (inactive)
OVCAR-4
  GI50: 61.5 µM (inactive)
OVCAR-5
  GI50: > 100 µM (inactive)
OVCAR-8
  GI50: > 100 µM (inactive)
PC-3
  GI50: 64.1 µM (inactive)
RPMI-8226
  GI50: 43.1 µM (inactive)
RXF 393
  GI50: 45.3 µM (inactive)
SF-268
  GI50: 78 µM (inactive)
SF-295
  GI50: 39.5 µM (inactive)
SF-539
  GI50: > 100 µM (inactive)
SK-MEL-28
  GI50: > 100 µM (inactive)
SK-MEL-2
  GI50: > 100 µM (inactive)
SK-MEL-5
  GI50: > 100 µM (inactive)
SK-OV-3
  GI50: > 100 µM (inactive)
SN12C
  GI50: > 100 µM (inactive)
SNB-19
  GI50: > 100 µM (inactive)
SNB-75
  GI50: 80.5 µM (inactive)
SR
  GI50: 38.7 µM (inactive)
SW-620
  GI50: 98.4 µM (inactive)
T47D
  GI50: 90.2 µM (inactive)
TK-10
  GI50: 98.6 µM (inactive)
U-251
  GI50: > 100 µM (inactive)
UACC-257
  GI50: > 100 µM (inactive)
UACC-62
  GI50: > 100 µM (inactive)
UO-31
  GI50: > 100 µM (inactive)

## CN(C)CC1CN/C(=N\C(=O)Nc2ccccc2)O1 (configuration not stated)
786-0
  GI50: > 100 µM (inactive)
A498
  GI50: 42.3 µM (inactive)
A549
  GI50: > 100 µM (inactive)
ACHN
  GI50: > 100 µM (inactive)
BT-549
  GI50: > 100 µM (inactive)
CAKI-1
  GI50: > 100 µM (inactive)
CCRF-CEM
  GI50: > 100 µM (inactive)
COLO 205
  GI50: > 100 µM (inactive)
DU-145
  GI50: > 100 µM (inactive)
EKVX
  GI50: > 100 µM (inactive)
HCC 2998
  GI50: > 100 µM (inactive)
HCT-116
  GI50: > 100 µM (inactive)
HCT-15
  GI50: > 100 µM
HL-60
  GI50: > 100 µM (inactive)
HOP-62
  GI50: > 100 µM (inactive)
HOP-92
  GI50: > 100 µM (inactive)
HT-29
  GI50: > 100 µM (inactive)
Hs-578T
  GI50: > 100 µM (inactive)
IGROV-1
  GI50: > 100 µM (inactive)
K562
  GI50: > 100 µM (inactive)
KM12
  GI50: > 100 µM (inactive)
LOX IMVI
  GI50: > 100 µM (inactive)
M14
  GI50: > 100 µM (inactive)
MCF7
  GI50: > 100 µM (inactive)
MDA-MB-231
  GI50: > 100 µM (inactive)
MDA-MB-435
  GI50: > 100 µM (inactive)
MDA-N
  GI50: > 100 µM (inactive)
MOLT-4
  GI50: > 100 µM (inactive)
Malme-3M
  GI50: > 100 µM (inactive)
NCI-H226
  GI50: > 100 µM (inactive)
NCI-H23
  GI50: > 100 µM (inactive)
NCI-H460
  GI50: > 100 µM (inactive)
NCI-H522
  GI50: > 100 µM (inactive)
NCI/ADR-RES
  GI50: > 100 µM (inactive)
OVCAR-3
  GI50: > 10 µM (inactive)
OVCAR-4
  GI50: > 100 µM (inactive)
OVCAR-5
  GI50: > 100 µM (inactive)
OVCAR-8
  GI50: > 100 µM (inactive)
PC-3
  GI50: > 100 µM (inactive)
RPMI-8226
  GI50: > 100 µM (inactive)
RXF 393
  GI50: > 100 µM (inactive)
SF-268
  GI50: > 100 µM (inactive)
SF-295
  GI50: > 100 µM (inactive)
SF-539
  GI50: > 100 µM (inactive)
SK-MEL-28
  GI50: > 100 µM (inactive)
SK-MEL-2
  GI50: > 100 µM (inactive)
SK-MEL-5
  GI50: > 100 µM (inactive)
SK-OV-3
  GI50: > 100 µM (inactive)
SN12C
  GI50: > 100 µM (inactive)
SNB-19
  GI50: > 100 µM (inactive)
SNB-75
  GI50: > 100 µM (inactive)
SR
  GI50: > 100 µM (inactive)
SW-620
  GI50: > 100 µM (inactive)
T47D
  GI50: > 100 µM (inactive)
TK-10
  GI50: > 100 µM (inactive)
U-251
  GI50: > 100 µM (inactive)
UACC-257
  GI50: > 100 µM (inactive)
UACC-62
  GI50: > 100 µM (inactive)
UO-31
  GI50: > 100 µM (inactive)
